The source of these data is ChEMBL document CHEMBL1201862, “PubChem BioAssay data set” (2004).

The target in assay [1] is T1, Apoptotic protease-activating factor 1 (Homo sapiens, UniProt O14727).
T1 sequence (O14727 whole entry): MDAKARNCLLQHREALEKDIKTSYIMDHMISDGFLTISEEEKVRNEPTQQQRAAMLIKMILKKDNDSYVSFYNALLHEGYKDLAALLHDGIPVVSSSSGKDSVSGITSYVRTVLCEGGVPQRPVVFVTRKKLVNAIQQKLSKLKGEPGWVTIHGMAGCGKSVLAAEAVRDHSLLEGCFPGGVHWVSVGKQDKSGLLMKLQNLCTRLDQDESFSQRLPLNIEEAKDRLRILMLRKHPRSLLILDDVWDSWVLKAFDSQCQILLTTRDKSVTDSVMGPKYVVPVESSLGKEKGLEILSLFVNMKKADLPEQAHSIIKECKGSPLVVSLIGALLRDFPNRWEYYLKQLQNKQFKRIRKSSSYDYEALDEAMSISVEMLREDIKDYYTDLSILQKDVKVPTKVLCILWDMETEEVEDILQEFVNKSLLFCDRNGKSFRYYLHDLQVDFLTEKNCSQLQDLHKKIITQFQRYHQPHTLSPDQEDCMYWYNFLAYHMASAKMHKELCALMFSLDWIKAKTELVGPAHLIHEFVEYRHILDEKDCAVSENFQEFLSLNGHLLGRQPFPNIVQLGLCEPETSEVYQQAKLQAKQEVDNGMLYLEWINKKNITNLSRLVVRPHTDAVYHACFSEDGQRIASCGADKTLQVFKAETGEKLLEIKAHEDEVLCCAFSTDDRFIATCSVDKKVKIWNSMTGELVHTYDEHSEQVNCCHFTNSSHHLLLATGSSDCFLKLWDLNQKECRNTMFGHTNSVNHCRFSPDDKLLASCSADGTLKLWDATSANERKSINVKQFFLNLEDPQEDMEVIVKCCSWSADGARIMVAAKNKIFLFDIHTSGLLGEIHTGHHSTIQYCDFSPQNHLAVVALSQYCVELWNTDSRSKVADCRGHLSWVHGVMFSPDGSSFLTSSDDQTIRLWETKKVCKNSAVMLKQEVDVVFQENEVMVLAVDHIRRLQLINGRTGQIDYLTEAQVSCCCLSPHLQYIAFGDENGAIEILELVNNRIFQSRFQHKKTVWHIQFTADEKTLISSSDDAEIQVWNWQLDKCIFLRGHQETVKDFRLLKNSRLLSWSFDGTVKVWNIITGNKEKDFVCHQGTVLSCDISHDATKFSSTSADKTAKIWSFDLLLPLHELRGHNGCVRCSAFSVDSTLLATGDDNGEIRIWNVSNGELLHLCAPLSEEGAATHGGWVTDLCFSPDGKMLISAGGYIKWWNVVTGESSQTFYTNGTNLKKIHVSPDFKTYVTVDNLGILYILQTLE
Type of assay: functional.

In assay [2] the test system is Streptococcus sp. 'group A'. Description: Streptococcus pyogenes SK(-)GAS viability under kanamycin – luminescence, BacTiterGlo, confirmation, counter-screen for streptokinase expression inhibitor project, dose response (AID 1900). Type of assay: functional, organism-based.
The target of assay [3] is T2, Voltage-gated N-type calcium channel alpha-1B subunit/Amyloid beta A4 precursor protein-binding family A member 1 (Homo sapiens, UniProt Q00975+Q02410). Type of assay: protein assay.
For another assay, the target named is T3, Streptokinase A (Streptococcus pyogenes serotype M1, UniProt P10520).
T3 sequence (P10520 whole entry): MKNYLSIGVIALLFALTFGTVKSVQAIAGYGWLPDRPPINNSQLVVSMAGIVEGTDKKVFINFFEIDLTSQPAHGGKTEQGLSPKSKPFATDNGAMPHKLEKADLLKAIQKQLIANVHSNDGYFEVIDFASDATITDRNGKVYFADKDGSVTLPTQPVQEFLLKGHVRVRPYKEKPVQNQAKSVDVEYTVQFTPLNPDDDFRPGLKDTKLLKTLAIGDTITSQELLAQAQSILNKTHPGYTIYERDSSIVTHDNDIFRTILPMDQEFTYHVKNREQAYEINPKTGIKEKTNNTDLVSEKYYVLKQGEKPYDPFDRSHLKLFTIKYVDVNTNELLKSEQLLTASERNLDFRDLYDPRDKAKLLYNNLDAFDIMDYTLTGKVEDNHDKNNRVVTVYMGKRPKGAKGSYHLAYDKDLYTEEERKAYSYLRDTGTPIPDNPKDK
Description: viability-normalized secreted streptokinase activity reduction – plasminogen activation absorbance, OD405, dose response (AID 1914).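 Note: secreted streptokinase activity via plasminogen activation per viability signal from cell pellet.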 Format: functional, Streptococcus pyogenes M1 GAS.

The target of another assay is T4, Estrogen receptor (Homo sapiens, UniProt P03372).
T4 sequence (P03372 whole entry): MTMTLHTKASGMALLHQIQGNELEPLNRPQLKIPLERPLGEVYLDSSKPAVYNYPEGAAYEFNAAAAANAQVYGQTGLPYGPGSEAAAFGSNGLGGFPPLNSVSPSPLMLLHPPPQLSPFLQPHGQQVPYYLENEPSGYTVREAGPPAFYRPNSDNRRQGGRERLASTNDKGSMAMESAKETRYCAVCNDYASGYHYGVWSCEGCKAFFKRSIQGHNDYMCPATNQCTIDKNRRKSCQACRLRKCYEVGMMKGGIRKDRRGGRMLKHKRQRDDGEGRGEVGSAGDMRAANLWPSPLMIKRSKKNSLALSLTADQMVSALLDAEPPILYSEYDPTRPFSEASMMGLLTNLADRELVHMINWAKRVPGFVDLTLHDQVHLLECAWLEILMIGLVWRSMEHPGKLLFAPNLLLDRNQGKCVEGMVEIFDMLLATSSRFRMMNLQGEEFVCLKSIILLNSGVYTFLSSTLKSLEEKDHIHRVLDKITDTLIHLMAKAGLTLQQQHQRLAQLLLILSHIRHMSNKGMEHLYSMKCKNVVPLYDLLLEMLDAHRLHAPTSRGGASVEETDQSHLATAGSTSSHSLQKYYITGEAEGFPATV

For assay [4], the target named is T2, Voltage-gated N-type calcium channel alpha-1B subunit/Amyloid beta A4 precursor protein-binding family A member 1. Format: protein assay. The source holds these as a separate data set.
The subject of the next assay is Streptococcus. Description: GAS UMAA2166 growth inhibition – luminescence, BacTiterGlo, counter-screen for streptokinase expression inhibitor project, dose response (AID 1915).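 Note: potency for reduction of bacterial viability or growth.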 Type of assay: functional, organism-based.
Assay [5] deals with Voltage-dependent T-type calcium channel subunit alpha-1H (Homo sapiens, UniProt O95180). Format: functional.
A further assay has as its system INS1. Description: INS-1E survival protection against cytokine death – cell-based, luminescence, retest, dose response (AID 449756).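 Note: cell death triggered by IL-1 beta plus TNF-alpha plus IFN-gamma mixture; protective hits raise ATP signal compared with cytokine alone wells.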 The following applies: Rattus norvegicus. Type of assay: functional.
A further assay has as its system Vero. Description: cells. Format: functional. To be noted: Chlorocebus sabaeus.
For assay [6], the target named is T5, RNA-binding protein pos-1 (Caenorhabditis elegans, UniProt G5EF15).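 Note: purified POS-1 fused to maltose binding protein made in E. coli; potency of compounds blocking POS-1 binding to fluorescent RNA.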
T5 sequence (G5EF15 whole entry): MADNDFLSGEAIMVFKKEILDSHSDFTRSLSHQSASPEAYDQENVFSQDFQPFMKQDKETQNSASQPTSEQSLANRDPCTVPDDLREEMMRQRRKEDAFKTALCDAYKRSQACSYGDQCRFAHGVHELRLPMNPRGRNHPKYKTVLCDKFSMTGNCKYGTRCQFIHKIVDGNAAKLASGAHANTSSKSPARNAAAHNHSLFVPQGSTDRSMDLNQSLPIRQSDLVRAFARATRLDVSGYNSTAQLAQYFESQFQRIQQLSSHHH
Description: disruptors of C. elegans POS-1 RNA interaction – biochemical, fluorescence polarization, dose response (AID 1964). (In general: In fluorescence polarisation assays a small probe gives low polarisation when free and higher when bound to something large.)

The target in assay [7] is T6, Zinc finger protein mex-5 (Caenorhabditis elegans, UniProt Q9XUB2).
T6 sequence (Q9XUB2 whole entry): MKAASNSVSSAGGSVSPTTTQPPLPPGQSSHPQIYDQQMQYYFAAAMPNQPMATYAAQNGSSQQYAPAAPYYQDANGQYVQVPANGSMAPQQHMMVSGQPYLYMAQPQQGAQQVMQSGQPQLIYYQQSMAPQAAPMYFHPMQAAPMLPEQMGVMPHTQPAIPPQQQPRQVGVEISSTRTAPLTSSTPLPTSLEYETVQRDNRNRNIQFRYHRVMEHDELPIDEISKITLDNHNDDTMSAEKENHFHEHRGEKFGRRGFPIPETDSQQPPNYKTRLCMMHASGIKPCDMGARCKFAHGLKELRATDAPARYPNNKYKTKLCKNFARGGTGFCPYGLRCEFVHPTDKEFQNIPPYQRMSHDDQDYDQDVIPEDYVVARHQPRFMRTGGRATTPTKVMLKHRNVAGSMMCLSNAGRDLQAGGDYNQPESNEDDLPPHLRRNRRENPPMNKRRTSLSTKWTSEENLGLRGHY
Description: potency of MEX-5 RNA-binding blockers – biochemical, C. elegans, fluorescence polarization, dose response (AID 1960).

For another assay, the system named is HeLa. Description: ATP-based viability loss in HeLa cells – cell-based, CellTiter-Glo luminescence, cherry-pick samples, cytotoxicity control for MITF activator project, dose response (AID 540259). Type of assay: functional. The following applies: Homo sapiens.
In assay [8] the target is T7, Estrogen receptor beta (Homo sapiens, UniProt Q92731).
Assay [9] deals with T7, Estrogen receptor beta. Description: blockers of SRC-3 recruitment to ERβ – biochemical, ELISA, streptavidin-HRP readout, orthogonal assay, confirmation (AID 1060). Background: An ELISA detects its analyte on a solid surface through an enzyme-linked reagent.

The structures appear in SMILES notation. Calls of active or inactive are those of the source.

T2 sequence (Q00975 whole entry): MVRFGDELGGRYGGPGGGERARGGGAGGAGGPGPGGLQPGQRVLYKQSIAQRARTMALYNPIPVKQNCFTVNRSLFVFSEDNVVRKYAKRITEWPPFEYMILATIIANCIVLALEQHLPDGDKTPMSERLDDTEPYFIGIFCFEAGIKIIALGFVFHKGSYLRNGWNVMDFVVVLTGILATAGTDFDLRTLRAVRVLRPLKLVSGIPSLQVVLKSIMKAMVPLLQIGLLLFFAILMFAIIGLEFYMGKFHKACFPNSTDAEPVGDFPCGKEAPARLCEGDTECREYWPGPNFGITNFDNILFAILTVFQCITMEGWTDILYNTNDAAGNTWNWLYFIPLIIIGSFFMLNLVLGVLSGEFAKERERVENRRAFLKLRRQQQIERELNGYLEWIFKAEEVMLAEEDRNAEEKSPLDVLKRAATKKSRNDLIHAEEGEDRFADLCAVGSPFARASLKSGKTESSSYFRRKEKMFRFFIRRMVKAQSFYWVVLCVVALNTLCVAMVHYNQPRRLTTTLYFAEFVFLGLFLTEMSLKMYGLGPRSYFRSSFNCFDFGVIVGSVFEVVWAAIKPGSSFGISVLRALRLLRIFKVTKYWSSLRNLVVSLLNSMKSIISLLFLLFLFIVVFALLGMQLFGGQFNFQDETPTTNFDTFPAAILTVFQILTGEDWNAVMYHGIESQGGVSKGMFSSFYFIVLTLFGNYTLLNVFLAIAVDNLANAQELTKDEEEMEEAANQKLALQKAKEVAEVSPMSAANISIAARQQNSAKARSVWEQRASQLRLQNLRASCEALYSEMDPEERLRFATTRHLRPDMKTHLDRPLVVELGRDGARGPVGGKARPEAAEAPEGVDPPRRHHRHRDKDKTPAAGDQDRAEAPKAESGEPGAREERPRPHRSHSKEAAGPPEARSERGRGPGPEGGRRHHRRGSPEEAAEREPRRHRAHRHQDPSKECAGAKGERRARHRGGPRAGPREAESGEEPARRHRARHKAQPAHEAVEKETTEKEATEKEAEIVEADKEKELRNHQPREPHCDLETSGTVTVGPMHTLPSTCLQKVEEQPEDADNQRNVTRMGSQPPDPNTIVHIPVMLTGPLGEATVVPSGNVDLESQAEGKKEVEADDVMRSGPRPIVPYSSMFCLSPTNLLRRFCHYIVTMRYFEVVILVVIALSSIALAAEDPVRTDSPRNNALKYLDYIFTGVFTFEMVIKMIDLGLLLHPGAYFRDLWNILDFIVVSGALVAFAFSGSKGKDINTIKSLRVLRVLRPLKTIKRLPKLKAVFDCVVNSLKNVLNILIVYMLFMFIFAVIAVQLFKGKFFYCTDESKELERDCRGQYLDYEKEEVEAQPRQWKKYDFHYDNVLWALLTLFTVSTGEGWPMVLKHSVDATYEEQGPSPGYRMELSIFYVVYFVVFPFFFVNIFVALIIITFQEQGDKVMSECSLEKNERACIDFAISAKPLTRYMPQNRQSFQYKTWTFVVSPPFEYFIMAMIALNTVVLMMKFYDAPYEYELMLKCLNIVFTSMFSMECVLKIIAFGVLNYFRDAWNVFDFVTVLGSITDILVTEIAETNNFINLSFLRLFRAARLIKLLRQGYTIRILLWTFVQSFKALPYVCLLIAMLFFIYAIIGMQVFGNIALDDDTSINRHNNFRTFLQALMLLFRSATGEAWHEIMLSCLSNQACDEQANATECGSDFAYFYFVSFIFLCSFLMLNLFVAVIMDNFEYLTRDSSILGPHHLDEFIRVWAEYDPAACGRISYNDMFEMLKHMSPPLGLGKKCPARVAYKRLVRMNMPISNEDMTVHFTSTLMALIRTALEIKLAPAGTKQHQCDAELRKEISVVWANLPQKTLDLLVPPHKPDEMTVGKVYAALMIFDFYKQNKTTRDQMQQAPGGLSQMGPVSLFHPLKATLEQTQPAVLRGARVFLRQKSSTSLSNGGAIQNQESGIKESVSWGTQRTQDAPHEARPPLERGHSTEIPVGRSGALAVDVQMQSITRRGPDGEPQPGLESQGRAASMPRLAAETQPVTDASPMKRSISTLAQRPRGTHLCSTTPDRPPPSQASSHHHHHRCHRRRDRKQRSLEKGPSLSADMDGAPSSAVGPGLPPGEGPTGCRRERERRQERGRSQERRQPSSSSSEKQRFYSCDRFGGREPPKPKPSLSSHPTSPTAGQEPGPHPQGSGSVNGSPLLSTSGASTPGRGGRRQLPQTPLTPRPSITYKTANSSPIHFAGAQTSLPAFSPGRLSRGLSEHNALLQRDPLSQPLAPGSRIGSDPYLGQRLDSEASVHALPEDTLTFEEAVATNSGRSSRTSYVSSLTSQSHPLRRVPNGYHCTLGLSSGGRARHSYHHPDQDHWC
T2 sequence (Q02410 whole entry): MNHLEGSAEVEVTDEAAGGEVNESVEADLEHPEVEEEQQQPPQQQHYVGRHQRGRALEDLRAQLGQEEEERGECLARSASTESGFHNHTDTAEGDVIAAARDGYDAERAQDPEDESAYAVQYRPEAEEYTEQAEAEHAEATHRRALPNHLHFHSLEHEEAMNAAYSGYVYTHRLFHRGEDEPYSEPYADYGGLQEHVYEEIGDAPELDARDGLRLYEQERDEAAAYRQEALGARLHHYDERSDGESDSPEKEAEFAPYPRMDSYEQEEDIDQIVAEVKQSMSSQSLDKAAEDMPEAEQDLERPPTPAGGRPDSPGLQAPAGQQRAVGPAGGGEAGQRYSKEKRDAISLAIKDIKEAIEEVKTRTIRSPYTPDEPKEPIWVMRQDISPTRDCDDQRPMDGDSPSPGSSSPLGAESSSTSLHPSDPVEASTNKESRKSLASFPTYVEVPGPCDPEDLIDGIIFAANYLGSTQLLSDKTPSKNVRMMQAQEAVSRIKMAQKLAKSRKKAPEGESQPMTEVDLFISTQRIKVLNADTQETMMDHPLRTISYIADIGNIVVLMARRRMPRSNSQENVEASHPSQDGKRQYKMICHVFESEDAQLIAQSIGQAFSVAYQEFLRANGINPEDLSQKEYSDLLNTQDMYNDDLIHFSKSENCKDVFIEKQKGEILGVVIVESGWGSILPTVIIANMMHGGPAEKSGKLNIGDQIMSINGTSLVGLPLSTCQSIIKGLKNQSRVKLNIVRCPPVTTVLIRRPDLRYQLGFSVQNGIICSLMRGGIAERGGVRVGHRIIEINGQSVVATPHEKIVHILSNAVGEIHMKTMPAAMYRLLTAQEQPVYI
T7 sequence (Q92731 whole entry): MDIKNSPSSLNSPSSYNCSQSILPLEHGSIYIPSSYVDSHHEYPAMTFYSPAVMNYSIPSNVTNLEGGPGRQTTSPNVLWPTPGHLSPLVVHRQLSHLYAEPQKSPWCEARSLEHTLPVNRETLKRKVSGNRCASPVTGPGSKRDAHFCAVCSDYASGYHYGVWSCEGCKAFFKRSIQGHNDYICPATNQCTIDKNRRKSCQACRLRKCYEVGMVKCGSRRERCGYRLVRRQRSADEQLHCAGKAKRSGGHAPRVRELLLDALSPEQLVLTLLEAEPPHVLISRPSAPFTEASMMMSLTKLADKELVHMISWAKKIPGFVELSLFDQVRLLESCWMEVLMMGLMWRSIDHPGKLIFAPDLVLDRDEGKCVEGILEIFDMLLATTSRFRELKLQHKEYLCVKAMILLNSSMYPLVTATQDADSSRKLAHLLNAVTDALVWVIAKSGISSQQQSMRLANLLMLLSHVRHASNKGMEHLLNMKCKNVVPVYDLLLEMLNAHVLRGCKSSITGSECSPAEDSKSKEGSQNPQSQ

Broadly, the IC50 is the concentration that gives 50% inhibition. Regarding `COc1ccc(-n2nc(C(=O)NCC(=O)NC3CCCC(C)C3C)c3ccccc3c2=O)c(OC)c1` (stereo not given), the IC50 in assay [1] was 14.5 µM (active).

By EC50 is commonly meant the concentration that produces a half-maximal response. The AC50 is the concentration at which the activity in the assay is half-maximal. Usually CC50 stands for the concentration that lowers cell viability or growth by half. With `CCCCCCc1cc2cc(-c3nnc(-c4ccccc4)o3)c(=O)oc2cc1O`, the EC50 in assay [2] is 6.12 µM (active); on Streptokinase A it was > 150 µM (not active); with Streptococcus it was 38.7 µM (inconclusive); in assay [5] it was 3 µM (active). Besides, the concentration for half-maximal inhibition (IC50) in assay [3] was 9.32 µM (active); against Estrogen receptor it was 34.9 µM (not active); in assay [4] it was > 50 µM (inactive); in assay [1], 11.7 µM (active). In addition, the AC50 in the assay on INS1 is 7.4 µM (active). Besides, the CC50 in the assay with Vero is 11.3 µM (active).

In the case of `COc1ccc(/C=C/c2ccc3c(Br)ccc(O)c3n2)cc1`, the EC50 in [6] was 117 µM (active); in [2] it was 0.923 µM (active); in assay [7], > 300 µM (not active); in the assay on Streptococcus it was 1.66 µM (active). In addition, the AC50 with HeLa was 35.9 µM (active).

With `Cc1snc2sc(C(=O)c3ccc(Br)cc3)c(N)c12`, the IC50 at Estrogen receptor is 28.2 µM (active); against Estrogen receptor beta [8], > 50 µM (not active); against Estrogen receptor beta [9], 0.0857 µM (not active). In addition, the AC50 with HeLa is 67.4 µM (active).
